Experimental data: the NIST ThermoML archive (doi:10.1016/j.jct.2009.07.002)
± gives the expanded uncertainty stated by the source.

Test: isobaric coefficient of expansion
Conditions: Liquid, DSC with Pressure Shift

In the case of `CCCO` [propan-1-ol], the “isobaric coefficient of expansion” value (278.15 K, 5000 kPa) is reported as 0.000927 ± 3.9e-05 1/K, the “isobaric coefficient of expansion” value (278.15 K, 10000 kPa) is reported as 0.000901 ± 3.8e-05 1/K and the “isobaric coefficient of expansion” value (278.15 K, 15000 kPa) is reported as 0.000883 ± 3.7e-05 1/K. For the same compound, the “isobaric coefficient of expansion” value (278.15 K, 20000 kPa) was 0.000868 ± 3.7e-05 1/K, the “isobaric coefficient of expansion” value (278.15 K, 25000 kPa) was 0.00085 ± 3.6e-05 1/K and the “isobaric coefficient of expansion” value (278.15 K, 30000 kPa) was 0.000834 ± 3.5e-05 1/K. For the same compound, the “isobaric coefficient of expansion” value (278.15 K, 35000 kPa) was 0.000818 ± 3.5e-05 1/K, the “isobaric coefficient of expansion” value (278.15 K, 40000 kPa) was 0.000803 ± 3.4e-05 1/K and the “isobaric coefficient of expansion” value (278.15 K, 45000 kPa) was 0.00079 ± 3.4e-05 1/K. For the same compound, the “isobaric coefficient of expansion” value (278.15 K, 50000 kPa) was 0.000777 ± 3.3e-05 1/K, the “isobaric coefficient of expansion” value (278.15 K, 55000 kPa) was 0.000767 ± 3.3e-05 1/K and the “isobaric coefficient of expansion” value (288.15 K, 5000 kPa) was 0.000947 ± 4e-05 1/K. The “isobaric coefficient of expansion” value (288.15 K, 10000 kPa) was 0.000923 ± 3.9e-05 1/K, the “isobaric coefficient of expansion” value (288.15 K, 15000 kPa) was 0.000902 ± 3.8e-05 1/K and the “isobaric coefficient of expansion” value (288.15 K, 20000 kPa) was 0.000884 ± 3.8e-05 1/K. The “isobaric coefficient of expansion” value (288.15 K, 25000 kPa) was 0.000867 ± 3.7e-05 1/K, the “isobaric coefficient of expansion” value (288.15 K, 30000 kPa) was 0.000848 ± 3.6e-05 1/K and the “isobaric coefficient of expansion” value (288.15 K, 35000 kPa) was 0.00083 ± 3.5e-05 1/K. For the same compound, the “isobaric coefficient of expansion” value (288.15 K, 40000 kPa) was 0.000816 ± 3.5e-05 1/K, the “isobaric coefficient of expansion” value (288.15 K, 45000 kPa) was 0.000801 ± 3.4e-05 1/K and the “isobaric coefficient of expansion” value (288.15 K, 50000 kPa) was 0.000786 ± 3.3e-05 1/K. For the same compound, the “isobaric coefficient of expansion” value (288.15 K, 55000 kPa) was 0.000775 ± 3.3e-05 1/K, the “isobaric coefficient of expansion” value (298.15 K, 5000 kPa) was 0.000967 ± 4.1e-05 1/K and the “isobaric coefficient of expansion” value (298.15 K, 10000 kPa) was 0.000943 ± 4e-05 1/K. The “isobaric coefficient of expansion” value (298.15 K, 15000 kPa) was 0.00092 ± 3.9e-05 1/K, the “isobaric coefficient of expansion” value (298.15 K, 20000 kPa) was 0.000899 ± 3.8e-05 1/K and the “isobaric coefficient of expansion” value (298.15 K, 25000 kPa) was 0.000877 ± 3.7e-05 1/K. For the same compound, the “isobaric coefficient of expansion” value (298.15 K, 30000 kPa) was 0.000858 ± 3.6e-05 1/K, the “isobaric coefficient of expansion” value (298.15 K, 35000 kPa) was 0.000843 ± 3.6e-05 1/K and the “isobaric coefficient of expansion” value (298.15 K, 40000 kPa) was 0.000822 ± 3.5e-05 1/K. For the same compound, the “isobaric coefficient of expansion” value (298.15 K, 45000 kPa) was 0.000811 ± 3.4e-05 1/K, the “isobaric coefficient of expansion” value (298.15 K, 50000 kPa) was 0.000795 ± 3.4e-05 1/K and the “isobaric coefficient of expansion” value (298.15 K, 55000 kPa) was 0.000781 ± 3.3e-05 1/K. For the same compound, the “isobaric coefficient of expansion” value (308.15 K, 5000 kPa) was 0.001 ± 4.3e-05 1/K, the “isobaric coefficient of expansion” value (308.15 K, 10000 kPa) was 0.000975 ± 4.1e-05 1/K and the “isobaric coefficient of expansion” value (308.15 K, 15000 kPa) was 0.000948 ± 4e-05 1/K. For the same compound, the “isobaric coefficient of expansion” value (308.15 K, 20000 kPa) was 0.000925 ± 3.9e-05 1/K, the “isobaric coefficient of expansion” value (308.15 K, 25000 kPa) was 0.0009 ± 3.8e-05 1/K and the “isobaric coefficient of expansion” value (308.15 K, 30000 kPa) was 0.000882 ± 3.7e-05 1/K. The “isobaric coefficient of expansion” value (308.15 K, 35000 kPa) was 0.000859 ± 3.6e-05 1/K, the “isobaric coefficient of expansion” value (308.15 K, 40000 kPa) was 0.000844 ± 3.6e-05 1/K and the “isobaric coefficient of expansion” value (308.15 K, 45000 kPa) was 0.000824 ± 3.5e-05 1/K. For the same compound, the “isobaric coefficient of expansion” value (308.15 K, 50000 kPa) was 0.000809 ± 3.4e-05 1/K, the “isobaric coefficient of expansion” value (308.15 K, 55000 kPa) was 0.000794 ± 3.4e-05 1/K and the “isobaric coefficient of expansion” value (318.15 K, 5000 kPa) was 0.00104 ± 4.4e-05 1/K. For the same compound, the “isobaric coefficient of expansion” value (318.15 K, 10000 kPa) was 0.001 ± 4.3e-05 1/K, the “isobaric coefficient of expansion” value (318.15 K, 15000 kPa) was 0.000976 ± 4.1e-05 1/K and the “isobaric coefficient of expansion” value (318.15 K, 20000 kPa) was 0.000947 ± 4e-05 1/K. For the same compound, the “isobaric coefficient of expansion” value (318.15 K, 25000 kPa) was 0.000922 ± 3.9e-05 1/K, the “isobaric coefficient of expansion” value (318.15 K, 30000 kPa) was 0.000899 ± 3.8e-05 1/K and the “isobaric coefficient of expansion” value (318.15 K, 35000 kPa) was 0.00088 ± 3.7e-05 1/K. For the same compound, the “isobaric coefficient of expansion” value (318.15 K, 40000 kPa) was 0.000854 ± 3.6e-05 1/K, the “isobaric coefficient of expansion” value (318.15 K, 45000 kPa) was 0.000839 ± 3.6e-05 1/K and the “isobaric coefficient of expansion” value (318.15 K, 50000 kPa) was 0.000822 ± 3.5e-05 1/K. For the same compound, the “isobaric coefficient of expansion” value (318.15 K, 55000 kPa) was 0.000806 ± 3.4e-05 1/K, the “isobaric coefficient of expansion” value (328.15 K, 5000 kPa) was 0.00107 ± 4.6e-05 1/K and the “isobaric coefficient of expansion” value (328.15 K, 10000 kPa) was 0.00104 ± 4.4e-05 1/K. The “isobaric coefficient of expansion” value (328.15 K, 15000 kPa) was 0.00101 ± 4.3e-05 1/K, the “isobaric coefficient of expansion” value (328.15 K, 20000 kPa) was 0.000975 ± 4.1e-05 1/K and the “isobaric coefficient of expansion” value (328.15 K, 25000 kPa) was 0.00095 ± 4e-05 1/K. For the same compound, the “isobaric coefficient of expansion” value (328.15 K, 30000 kPa) was 0.000923 ± 3.9e-05 1/K, the “isobaric coefficient of expansion” value (328.15 K, 35000 kPa) was 0.000901 ± 3.8e-05 1/K and the “isobaric coefficient of expansion” value (328.15 K, 40000 kPa) was 0.000878 ± 3.7e-05 1/K. For the same compound, the “isobaric coefficient of expansion” value (328.15 K, 45000 kPa) was 0.000858 ± 3.6e-05 1/K, the “isobaric coefficient of expansion” value (328.15 K, 50000 kPa) was 0.000838 ± 3.6e-05 1/K and the “isobaric coefficient of expansion” value (328.15 K, 55000 kPa) was 0.000821 ± 3.5e-05 1/K. The “isobaric coefficient of expansion” value (338.15 K, 5000 kPa) was 0.00111 ± 4.7e-05 1/K, the “isobaric coefficient of expansion” value (338.15 K, 10000 kPa) was 0.00108 ± 4.6e-05 1/K and the “isobaric coefficient of expansion” value (338.15 K, 15000 kPa) was 0.00104 ± 4.4e-05 1/K. The “isobaric coefficient of expansion” value (338.15 K, 20000 kPa) was 0.00101 ± 4.3e-05 1/K, the “isobaric coefficient of expansion” value (338.15 K, 25000 kPa) was 0.000977 ± 4.1e-05 1/K and the “isobaric coefficient of expansion” value (338.15 K, 30000 kPa) was 0.000951 ± 4e-05 1/K. The “isobaric coefficient of expansion” value (338.15 K, 35000 kPa) was 0.000926 ± 3.9e-05 1/K, the “isobaric coefficient of expansion” value (338.15 K, 40000 kPa) was 0.000899 ± 3.8e-05 1/K and the “isobaric coefficient of expansion” value (338.15 K, 45000 kPa) was 0.000881 ± 3.7e-05 1/K. The “isobaric coefficient of expansion” value (338.15 K, 50000 kPa) was 0.000862 ± 3.7e-05 1/K, the “isobaric coefficient of expansion” value (338.15 K, 55000 kPa) was 0.000837 ± 3.6e-05 1/K and the “isobaric coefficient of expansion” value (348.15 K, 5000 kPa) was 0.00116 ± 4.9e-05 1/K. The “isobaric coefficient of expansion” value (348.15 K, 10000 kPa) was 0.00112 ± 4.8e-05 1/K, the “isobaric coefficient of expansion” value (348.15 K, 15000 kPa) was 0.00108 ± 4.6e-05 1/K and the “isobaric coefficient of expansion” value (348.15 K, 20000 kPa) was 0.00105 ± 4.4e-05 1/K. For the same compound, the “isobaric coefficient of expansion” value (348.15 K, 25000 kPa) was 0.00101 ± 4.3e-05 1/K, the “isobaric coefficient of expansion” value (348.15 K, 30000 kPa) was 0.000984 ± 4.2e-05 1/K and the “isobaric coefficient of expansion” value (348.15 K, 35000 kPa) was 0.000958 ± 4.1e-05 1/K. For the same compound, the “isobaric coefficient of expansion” value (348.15 K, 40000 kPa) was 0.000927 ± 3.9e-05 1/K, the “isobaric coefficient of expansion” value (348.15 K, 45000 kPa) was 0.000906 ± 3.8e-05 1/K and the “isobaric coefficient of expansion” value (348.15 K, 50000 kPa) was 0.000885 ± 3.8e-05 1/K. The “isobaric coefficient of expansion” value (348.15 K, 55000 kPa) was 0.000861 ± 3.7e-05 1/K.
